From patent US9670227B2, “Thienopyrimidine derivatives, a process for their preparation and pharmaceutical compositions containing them” (LES LABORATOIRES SERVIER, priority 2013, dated 2017) come the findings set out here.

Structures are written as SMILES.

The target in the first experiment is Mcl-1 protein (UniProtKB primary accession number: Q07820) (Homo sapiens, UniProt Q07820). Nature of the experiment: Inhibition of Mcl-1 by fluorescence polarisation, Method 1. Particulars: fluorescence polarisation test; Method 1, or Method 2 where the value is underlined (underlining not visible); read-out: IC50 (M) Mcl-1 FP. In kind it is binding. The procedure, abridged: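 FP readout of relative binding potency. Mcl-1 5 nM final, fluorescein-labelled ligand 1 nM final; buffer 10 mM HEPES, 150 mM NaCl, 0.05% Tween 20, pH 7.4; 11-pt dilution series, 5% DMSO final.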
Chain of Mcl-1 protein (Q07820 whole entry): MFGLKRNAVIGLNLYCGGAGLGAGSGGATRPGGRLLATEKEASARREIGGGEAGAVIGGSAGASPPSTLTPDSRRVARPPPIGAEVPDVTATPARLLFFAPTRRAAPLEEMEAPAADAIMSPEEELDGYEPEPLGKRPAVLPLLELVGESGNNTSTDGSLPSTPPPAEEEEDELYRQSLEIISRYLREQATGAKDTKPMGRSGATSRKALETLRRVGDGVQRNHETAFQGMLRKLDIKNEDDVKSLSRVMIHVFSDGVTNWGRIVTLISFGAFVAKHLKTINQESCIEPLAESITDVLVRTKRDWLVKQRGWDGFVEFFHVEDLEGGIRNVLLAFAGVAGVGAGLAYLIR
A word on the IC50: it is the concentration that gives 50% inhibition. Regarding `CCOC(=O)C(Cc1ccccc1OCc1ccnn1C(C)(C)C)Oc1ncnc2sc(-c3cccc(F)c3F)c(-c3ccc(OCCN(C)C)c(Cl)c3C)c12` [Example 804, ethyl (2R)-3-{2-[(1-tert-butyl-1H-pyrazol-5-yl)methoxy]phenyl}-2-{[(5Sa)-5-{3-chloro-4-[2-(dimethylamino)ethoxy]-2-methylphenyl}-6-(2,3-difluorophenyl)thieno[2,3-d]pyrimidin-4-yl]oxy}propanoate], the IC50 turned out to be 4.68e-05 M.
The same measure, in the same setting: the value for `COc1ccccc1-c1nccc(COc2ccccc2CC(Oc2ncnc3sc(-c4ccc(F)cc4)c(-c4ccc(OCCN5CCN(C)CC5)c(Cl)c4C)c23)C(=O)OC(C)OC(=O)C(C)C)n1` [Example 861, 1-[(2-methylpropanoyl)oxy]ethyl (2R)-2-{[(5Sa)-5-{3-chloro-2-methyl-4-[2-(4-methylpiperazin-1-yl)ethoxy]phenyl}-6-(4-fluorophenyl)thieno[2,3-d]pyrimidin-4-yl]oxy}-3-(2-{[2-(2-methoxyphenyl)pyrimidin-4-yl]methoxy}phenyl)propanoate] was 5.77e-07 M.

The experiment is the same for the next values; noted with them: fluorescence polarisation test; Method 2 values are underlined in the patent (underlining not visible here); read-out: IC50 (M) Mcl-1 FP.
As for `COc1ccccc1CC(Oc1ncnc2sc(-c3ccco3)c(-c3ccc(OCCC4CN(C)CCO4)c(Cl)c3C)c12)C(=O)O` (single isomer, unassigned) [Example 318], the IC50 is 3e-08 M.
Same read-out and setting: the figure for `CCn1nccc1COc1ccccc1CC(Oc1ncnc2sc(-c3ccc(F)cc3)c(-c3ccc(OCCN4CCN(C)CC4)c(Cl)c3C)c12)C(=O)O` [Example 76, (2R)-2-{[(5Sa)-5-{3-chloro-2-methyl-4-[2-(4-methylpiperazin-1-yl)ethoxy]phenyl}-6-(4-fluorophenyl)thieno[2,3-d]pyrimidin-4-yl]oxy}-3-{2-[(1-ethyl-1H-pyrazol-5-yl)methoxy]phenyl}propanoic acid] is 1.6e-08 M.
For the compound `COc1ccccc1CC(Oc1ncnc2sc(-c3ccc(Cl)o3)c(-c3ccc(OCCN4CCN(C)CC4)c(Cl)c3C)c12)C(=O)O` [Example 363, (2R)-2-{[6-(5-chlorofuran-2-yl)-(5Sa)-5-{3-chloro-2-methyl-4-[2-(4-methylpiperazin-1-yl)ethoxy]phenyl}thieno[2,3-d]pyrimidin-4-yl]oxy}-3-(2-methoxyphenyl)propanoic acid], the IC50 is 7.7e-09 M.
Consider `COc1ccccc1CC(Oc1ncnc2sc(-c3ccco3)c(-c3ccc(OCCN4CCN(C)C(=O)C4)c(Cl)c3C)c12)C(=O)O` [Example 321, (2R)-2-{[(5Sa)-5-{3-chloro-2-methyl-4-[2-(4-methyl-3-oxopiperazin-1-yl)ethoxy]phenyl}-6-(furan-2-yl)thieno[2,3-d]pyrimidin-4-yl]oxy}-3-(2-methoxyphenyl)propanoic acid], for which the half-inhibitory concentration (IC50) came to 6e-09 M.
On the same count and under the same terms, the value for `CCCCn1nccc1COc1ccccc1CC(Oc1ncnc2sc(-c3ccc(F)cc3)c(-c3ccc(OCCN4CCN(C)CC4)c(Cl)c3C)c12)C(=O)O` [Example 83, (2R)-3-{2-[(1-butyl-1H-pyrazol-5-yl)methoxy]phenyl}-2-{[(5Sa)-5-{3-chloro-2-methyl-4-[2-(4-methylpiperazin-1-yl)ethoxy]phenyl}-6-(4-fluorophenyl)thieno[2,3-d]pyrimidin-4-yl]oxy}propanoic acid] was 5.1e-09 M; that for `Cc1c(-c2c(-c3ccco3)sc3ncnc(OC(Cc4cccc(F)c4F)C(=O)O)c23)ccc(OCCN2CCN(C)CC2)c1Cl` [Example 350, (2R)-2-{[(5Sa)-5-{3-chloro-2-methyl-4-[2-(4-methylpiperazin-1-yl)ethoxy]phenyl}-6-(furan-2-yl)thieno[2,3-d]pyrimidin-4-yl]oxy}-3-(2,3-difluorophenyl)propanoic acid] was 2.8e-08 M; that for `COc1ccccc1CC(Oc1ncnc2sc(-c3ccc(F)o3)c(-c3ccc(OCCN4CCN(C)CC4)c(Cl)c3C)c12)C(=O)O` [Example 149, (2R)-2-{[(5Sa)-5-{3-chloro-2-methyl-4-[2-(4-methylpiperazin-1-yl)ethoxy]phenyl}-6-(5-fluorofuran-2-yl)thieno[2,3-d]pyrimidin-4-yl]oxy}-3-(2-methoxyphenyl)propanoic acid] was 1.2e-08 M.
In the case of `Cc1c(-c2c(-c3ccco3)sc3ncnc(OC(Cc4ccccc4OC4CCCc5cccnc54)C(=O)O)c23)ccc(OCCN2CCN(C)CC2)c1Cl` [Example 213, (2R)-2-{[(5Sa)-5-{3-chloro-2-methyl-4-[2-(4-methylpiperazin-1-yl)ethoxy]phenyl}-6-(furan-2-yl)thieno[2,3-d]pyrimidin-4-yl]oxy}-3-[2-(5,6,7,8-tetrahydroquinolin-8-yloxy)phenyl]propanoic acid], the half-inhibitory concentration (IC50) was 1.8e-08 M.
On to `Cc1c(-c2c(-c3ccco3)sc3ncnc(OC(Cc4ccccc4SCC(F)(F)F)C(=O)O)c23)ccc(OCCN2CCN(C)CC2)c1Cl` [Example 361, (2S)-2-{[(5Ra)-5-{3-chloro-2-methyl-4-[2-(4-methylpiperazin-1-yl)ethoxy]phenyl}-6-(furan-2-yl)thieno[2,3-d]pyrimidin-4-yl]oxy}-3-{2-[(2,2,2-trifluoroethyl)sulfanyl]phenyl}propanoic acid], for which the half-inhibitory concentration (IC50) came to 7.1e-07 M.

The experiment is the same for the next values; noted with them: fluorescence polarisation; Method 1, or Method 2; read-out: IC50 (M) Mcl-1 FP.
On to `COc1ccccc1-n1ccc(COc2ccccc2CC(Oc2ncnc3sc(-c4ccc(F)cc4)c(-c4ccc(OCCN5CCN(C)CC5)c(Cl)c4C)c23)C(=O)O)n1` [Example 737, (2R)-2-{[(5Sa)-5-{3-chloro-2-methyl-4-[2-(4-methylpiperazin-1-yl)ethoxy]phenyl}-6-(4-fluorophenyl)thieno[2,3-d]pyrimidin-4-yl]oxy}-3-(2-{[1-(2-methoxyphenyl)-1H-pyrazol-3-yl]methoxy}phenyl)propanoic acid], for which the 50% inhibitory concentration (IC50) came to 1.43e-08 M.
`Cc1sccc1-c1sc2ncnc(OC(Cc3ccccc3)C(=O)O)c2c1-c1ccc(OCCN2CCN(C)CC2)c(Cl)c1C` [Example 511, (2R)-2-{[(5Sa)-5-{3-chloro-2-methyl-4-[2-(4-methylpiperazin-1-yl)ethoxy]phenyl}-6-(2-methylthiophen-3-yl)thieno[2,3-d]pyrimidin-4-yl]oxy}-3-phenylpropanoic acid]: the 50% inhibitory concentration (IC50) turned out to be 4.8e-07 M.
For `CCc1sc2ncnc(OC(Cc3ccccc3)C(=O)O)c2c1-c1cccc(Cl)c1C` [Example 450, (2R)-2-{[(5Sa)-5-(3-chloro-2-methylphenyl)-6-ethylthieno[2,3-d]pyrimidin-4-yl]oxy}-3-phenylpropanoic acid], the IC50 was 2.6e-08 M.
With `Cc1c(-c2c(-c3ccc(F)cc3)sc3ncnc(OC(Cc4ccccc4OCc4ccnn4Cc4ccncc4)C(=O)O)c23)ccc(OCCN2CCN(C)CC2)c1Cl` [Example 736, (2R)-2-{[(5Sa)-5-{3-chloro-2-methyl-4-[2-(4-methylpiperazin-1-yl)ethoxy]phenyl}-6-(4-fluorophenyl)thieno[2,3-d]pyrimidin-4-yl]oxy}-3-(2-{[1-(pyridin-4-ylmethyl)-1H-pyrazol-5-yl]methoxy}phenyl)propanoic acid], the IC50 is 2.58e-09 M.
As for `CCc1sc2ncnc(OC(Cc3ccccc3)C(=O)O)c2c1-c1cccc(O)c1C` [Example 452, (2R)-2-{[6-ethyl-(5Sa)-5-(3-hydroxy-2-methylphenyl)thieno[2,3-d]pyrimidin-4-yl]oxy}-3-phenylpropanoic acid and (2S)-2-{[6-ethyl-(5Ra)-5-(3-hydroxy-2-methylphenyl)thieno[2,3-d]pyrimidin-4-yl]oxy}-3-phenylpropanoic acid], the IC50 stood at 3e-07 M.
For `CCc1sc2ncnc(OC(Cc3ccccc3)C(=O)O)c2c1-c1cc(N)c(O)c(Cl)c1C` [Example 431, (2R)-2-{[(5Sa)-5-(5-amino-3-chloro-4-hydroxy-2-methylphenyl)-6-ethylthieno[2,3-d]pyrimidin-4-yl]oxy}-3-phenylpropanoic acid], the IC50 came out at 3.2e-08 M.
Same read-out and setting: the value for `CCc1sc2ncnc(OC(Cc3ccccc3)C(=O)O)c2c1-c1cc(Cl)c(O)cc1C` [Example 438, (2R)-2-{[(5Sa)-5-(5-chloro-4-hydroxy-2-methylphenyl)-6-ethylthieno[2,3-d]pyrimidin-4-yl]oxy}-3-phenylpropanoic acid] was 8.5e-08 M; that for `COc1ccc(-c2c(-c3ccc(F)cc3)sc3ncnc(OC(Cc4ccccc4OCc4ccnc(N(C)C)n4)C(=O)O)c23)c(C)c1Cl` [Example 660, (2R)-2-{[(5Sa)-5-(3-chloro-4-methoxy-2-methylphenyl)-6-(4-fluorophenyl)thieno[2,3-d]pyrimidin-4-yl]oxy}-3-(2-{[2-(dimethylamino)pyrimidin-4-yl]methoxy}phenyl)propanoic acid] was 5.1e-08 M.

Still in this experiment, the particulars now being: partial inhibitors; @ 10 uM test compound.
In the case of `CCOC(=O)[C@@H](Cc1ccccc1OCC(F)(F)F)Oc1ncnc2sc(-c3ccc(F)cc3)c(-c3ccc(OCCN4CCOCC4)c(Cl)c3C)c12` [Example 637, ethyl (2R)-2-{[(5Sa)-5-{3-chloro-2-methyl-4-[2-(morpholin-4-yl)ethoxy]phenyl}-6-(4-fluorophenyl)thieno[2,3-d]pyrimidin-4-yl]oxy}-3-[2-(2,2,2-trifluoroethoxy)phenyl]propanoate], the “percentage fluorescence polarisation inhibition, Mcl-1 FP” value came to 5.9% @ 10 uM.

Still in this experiment, the particulars now being: partial inhibitors; @ 10 uM test compound; 10 µM.
Regarding `COc1ccccc1CC(Oc1ncnc2sc(C(=O)N(C)C)c(-c3ccc(OCCN4CCN(C)CC4)c(Cl)c3C)c12)C(=O)O` [Example 575, (2R)-2-{[(5Sa)-5-{3-chloro-2-methyl-4-[2-(4-methylpiperazin-1-yl)ethoxy]phenyl}-6-(dimethylcarbamoyl)thieno[2,3-d]pyrimidin-4-yl]oxy}-3-(2-methoxyphenyl)propanoic acid], the “percentage fluorescence polarisation inhibition, Mcl-1 FP” value came to 46.8% @ 10 uM.
On the same count and under the same terms, the value for `COc1ccccc1CC(Oc1ncnc2sc(C(=O)N(C)C)c(-c3ccc(OCCN4CCN(C)CC4)c(Cl)c3C)c12)C(=O)O` [Example 574, (2R)-2-{[(5Ra)-5-{3-chloro-2-methyl-4-[2-(4-methylpiperazin-1-yl)ethoxy]phenyl}-6-(dimethylcarbamoyl)thieno[2,3-d]pyrimidin-4-yl]oxy}-3-(2-methoxyphenyl)propanoic acid] was 24.3% @ 10 uM.
